Laboratory results as given in US4325946A, “Anthracycline glycosides, their preparation, use and compositions thereof” (Farmitalia Carlo Erba S.p.A., priority 1979, dated 1982).
Counter-ions that a name gives are not always drawn.

Assays:
HeLa cells = assay: Effect on HeLa cells cloning efficiency in vitro; assay type: cell-based; conditions: HeLa cells exposed 24 hours, then plated, colonies evaluated 5 days later; for IC50: Homo sapiens, read-out: ID50 (the source's name)
Method: (§1) The new compounds according to the invention were tested in HeLa cells in vitro (time of exposure to the drugs: 24 hours) and on P-388 ascitic leukemia in mice in comparison with daunorubicin (daunomycin) and doxorubicin (adriamycin).
Effect on HeLa Cells Cloning Efficiency In Vitro^(a)
^(a) HeLa cells were exposed to the test compounds for 24 hours, then
plated. The number of colonies was evaluated 5 days later.

P-388 ascitic leukemia = assay: Activity on ascitic P-388 leukemia in mice; assay type: in vivo; conditions: for Toxic Deaths: macroscopic autoptic findings
Method: as §1
Activity on Ascitic P-388 Leukemia in Mice
^(a) Mice were treated i.p. on day 1 after tumor cell inoculation.
^(b) Median survival time of treated mice/median survival time of
^(c) Evaluated on the basis of macroscopic autoptic findings.
^(d) Longtime survival.

4'-C-methyl-daunorubicin [I-A] was tested. Which ID50 (HeLa cells) did it give?
The ID50 was 35 ng/mL.

And the “T/C (median survival time of treated mice/control mice × 100)” value (P-388 ascitic leukemia; 10 mg/Kg i.p. on day 1)?
Its value is 150%.

And the “Toxic Deaths” value (P-388 ascitic leukemia; 10 mg/Kg i.p. on day 1)?
Its value is 0/10.

And the “T/C (median survival time of treated mice/control mice × 100)” value (P-388 ascitic leukemia; 20 mg/Kg i.p. on day 1)?
The value was 155%.

And the “Toxic Deaths” value (P-388 ascitic leukemia; 20 mg/Kg i.p. on day 1)?
The value was 0/10.

How did the ID50 (HeLa cells) turn out when 4'-epi-4'-C-methyl-daunorubicin [I-C] was run?
The ID50 was 2.8 ng/mL.

What about the “T/C (median survival time of treated mice/control mice × 100)” value (P-388 ascitic leukemia; 0.29 mg/Kg i.p. on day 1) of the same compound?
Its value is 140%.

And the “Toxic Deaths” value (P-388 ascitic leukemia; 0.29 mg/Kg i.p. on day 1)?
The value was 0/10.

And the “T/C (median survival time of treated mice/control mice × 100)” value (P-388 ascitic leukemia; 0.44 mg/Kg i.p. on day 1)?
The value was 163%.

And the “Toxic Deaths” value (P-388 ascitic leukemia; 0.44 mg/Kg i.p. on day 1)?
The value was 0/10.

And the “T/C (median survival time of treated mice/control mice × 100)” value (P-388 ascitic leukemia; 0.66 mg/Kg i.p. on day 1)?
Its value is 158%.

And the “Toxic Deaths” value (P-388 ascitic leukemia; 0.66 mg/Kg i.p. on day 1)?
Its value is 1/20.

With 4'-epi-4'-C-methyl-doxorubicin [I-D] as the compound, how does the ID50 (HeLa cells) read?
The ID50 was 0.62 ng/mL.

And the “T/C (median survival time of treated mice/control mice × 100)” value (P-388 ascitic leukemia; 1 mg/Kg i.p. on day 1)?
Its value is 150%.

And the “Toxic Deaths” value (P-388 ascitic leukemia; 1 mg/Kg i.p. on day 1)?
Its value is 0/10.

What about the “T/C (median survival time of treated mice/control mice × 100)” value (P-388 ascitic leukemia; 2 mg/Kg i.p. on day 1) of the same compound?
Its value is 156%.

And the “Toxic Deaths” value (P-388 ascitic leukemia; 2 mg/Kg i.p. on day 1)?
Its value is 0/10.

For COc1cccc2c1C(=O)c1c(O)c3c(c(O)c1C2=O)C[C@@](O)(C(C)=O)C[C@@H]3O[C@H]1C[C@H](N)[C@H](O)[C@H](C)O1 [Daunorubicin . HCl, Daunorubicin, reference compound], which IC50 (HeLa cells) is on record?
The IC50 was 9 ng/mL.

What about the “T/C (median survival time of treated mice/control mice × 100)” value (P-388 ascitic leukemia; 2.9 mg/Kg i.p. on day 1) of the same compound?
Its value is 175%.

What about the “Toxic Deaths” value (P-388 ascitic leukemia; 2.9 mg/Kg i.p. on day 1) of the same compound?
The value was 0/40.

And the “T/C (median survival time of treated mice/control mice × 100)” value (P-388 ascitic leukemia; 4.4 mg/Kg i.p. on day 1)?
Its value is 180%.

What about the “Toxic Deaths” value (P-388 ascitic leukemia; 4.4 mg/Kg i.p. on day 1) of the same compound?
Its value is 3/39.

COc1cccc2c1C(=O)c1c(O)c3c(c(O)c1C2=O)C[C@@](O)(C(=O)CO)C[C@@H]3O[C@H]1C[C@H](N)[C@H](O)[C@H](C)O1 [Doxorubicin . HCl, Doxorubicin, reference compound] was tested. Which IC50 (HeLa cells) did it give?
Its IC50 is 8.4 ng/mL.

And the “LTS (longtime survival)” value (P-388 ascitic leukemia; 6.6 mg/Kg i.p. on day 1)?
Its value is 2/30.

What about the “T/C (median survival time of treated mice/control mice × 100)” value (P-388 ascitic leukemia; 6.6 mg/Kg i.p. on day 1) of the same compound?
Its value is 193%.

What about the “Toxic Deaths” value (P-388 ascitic leukemia; 6.6 mg/Kg i.p. on day 1) of the same compound?
Its value is 0/30.

And the “LTS (longtime survival)” value (P-388 ascitic leukemia; 10 mg/Kg i.p. on day 1)?
Its value is 5/28.

What about the “T/C (median survival time of treated mice/control mice × 100)” value (P-388 ascitic leukemia; 10 mg/Kg i.p. on day 1) of the same compound?
Its value is 227%.

What about the “Toxic Deaths” value (P-388 ascitic leukemia; 10 mg/Kg i.p. on day 1) of the same compound?
The value was 1/28.

Which results are given for COc1cccc2c1C(=O)c1c(O)c3c(c(O)c1C2=O)CC(O)(C(=O)CO)CC3OC1CC(N)C(C)(O)C(C)O1.Cl (stereo not shown) [I-B, 4'-C-methyl-doxorubicin]?
ID50 (HeLa cells): 18 ng/mL; T/C (median survival time of treated mice/control mice × 100) (P-388 ascitic leukemia; 6 mg/Kg i.p. on day 1): 186%; Toxic Deaths (P-388 ascitic leukemia; 6 mg/Kg i.p. on day 1): 0/10; T/C (median survival time of treated mice/control mice × 100) (P-388 ascitic leukemia; 7.7 mg/Kg i.p. on day 1): 172%; Toxic Deaths (P-388 ascitic leukemia; 7.7 mg/Kg i.p. on day 1): 0/10; LTS (longtime survival) (P-388 ascitic leukemia; 10 mg/Kg i.p. on day 1): 3/20; T/C (median survival time of treated mice/control mice × 100) (P-388 ascitic leukemia; 10 mg/Kg i.p. on day 1): 233%; Toxic Deaths (P-388 ascitic leukemia; 10 mg/Kg i.p. on day 1): 2/20
